Values after ≈ are worked out from the molar mass of the structure shown. Active and inactive are the calls of the source. The rule behind the calls is not given here.
Key:
[1] = Water solubility of compound in phosphate buffer at pH 7 by HPLC analysis; type: physicochemical
CYP2C9 = CYP2C9 (Homo sapiens, UniProt P11712); assay: Inhibition of CYP2C9 (unknown origin) at 10 uM using diclofenac as substrate incubated for 10 mins in presence of NADPH by LC-MS/MS analysis relative to control; type: ADME; conditions: probe diclofenac
[2] = Water solubility of compound in phosphate buffer at pH 7.4 by HPLC analysis; type: physicochemical
CYP1A2 = target: T1, CYP1A2 (Homo sapiens, UniProt P05177); assay: Inhibition of CYP1A2 (unknown origin) at 10 uM using phenacetin as substrate incubated for 10 mins in presence of NADPH by LC-MS/MS analysis relative to control; type: ADME; conditions: probe phenacetin
T1 sequence (P05177 whole entry): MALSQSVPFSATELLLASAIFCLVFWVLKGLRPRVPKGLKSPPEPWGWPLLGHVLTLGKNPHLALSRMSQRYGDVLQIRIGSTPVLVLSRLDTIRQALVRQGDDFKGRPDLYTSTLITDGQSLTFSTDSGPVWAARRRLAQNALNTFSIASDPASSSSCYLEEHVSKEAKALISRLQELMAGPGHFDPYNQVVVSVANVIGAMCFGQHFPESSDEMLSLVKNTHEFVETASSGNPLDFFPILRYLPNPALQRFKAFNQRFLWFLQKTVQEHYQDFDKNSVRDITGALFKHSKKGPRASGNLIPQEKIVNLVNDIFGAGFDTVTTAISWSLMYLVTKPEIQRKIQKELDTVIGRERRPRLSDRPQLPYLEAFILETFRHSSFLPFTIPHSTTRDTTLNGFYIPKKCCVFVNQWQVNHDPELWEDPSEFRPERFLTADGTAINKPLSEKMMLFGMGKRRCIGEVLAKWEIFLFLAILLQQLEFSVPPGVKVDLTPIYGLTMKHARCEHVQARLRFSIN

[3] = Selectivity index, ratio of CC50 for cytotoxicity against human HePAD38 cells assessed as reduction in cell viability to EC50 for antiviral activity against HBV infected human HePAD38 cells assessed as reduction of HBV DNA level; type: toxicity, cell-based; conditions: read-out: Ratio CC50/EC50
CYP2C19 = CYP2C19 (Homo sapiens, UniProt P33261); assay: Inhibition of CYP2C19 (unknown origin) at 10 uM using s-mephenytoin as substrate incubated for 10 mins in presence of NADPH by LC-MS/MS analysis relative to control; type: ADME; conditions: probe S-mephenytoin
Hepatitis B virus [4] = assay: Antiviral activity against HBV infected human HePAD38 cells assessed as reduction in intracellular core protein content at 0.003 uM incubated for 6 days by Western blot analysis; type: functional, organism-based; conditions: time 6.0 day
CYP2D6 = CYP2D6 (Homo sapiens, UniProt P10635); assay: Inhibition of CYP2D6 (unknown origin) at 10 uM using dextromethorphan as substrate incubated for 10 mins in presence of NADPH by LC-MS/MS analysis relative to control; type: ADME; conditions: probe dextromethorphan
[5] = Metabolic stability in human liver assessed as intrinsic clearance preincubated for 10 mins followed by NADPH addition and measured after 60 mins by LC-MS/MS analysis; type: ADME, tissue-based; conditions: time 70 min, read-out: CLH
hERG (KCNH2) [6] = target: T2, hERG (KCNH2) (Homo sapiens, UniProt Q12809); assay: Inhibition of hERG expressed in HEK293 cells at 1 uM at holding potential of -80 mV by whole cell patch clamp assay relative to control; type: toxicity, cell-based; conditions: HEK293 cells expressing hERG
Hepatitis B virus [7] = assay: Antiviral activity against HBV infected human HePAD38 cells assessed as reduction in intracellular capsid content upto 10 uM incubated for 6 days; type: functional, organism-based; conditions: time 6.0 day
CYP3A = CYP3A (Homo sapiens, UniProt P08684+P20815+P24462+Q9HB55); assay: Inhibition of CYP3A (unknown origin) at 10 uM using midazolam as substrate incubated for 10 mins in presence of NADPH by LC-MS/MS analysis relative to control; type: ADME, protein assay; conditions: probe midazolam
[8] = Metabolic stability in human liver microsome assessed as intrinsic clearance preincubated for 10 mins followed by NADPH addition and measured after 60 mins by LC-MS/MS analysis; type: ADME; conditions: liver microsomes, time 70 min, read-out: CLH
hERG (KCNH2) [9] = target: T2, hERG (KCNH2); assay: Inhibition of hERG expressed in HEK293 cells at 10 uM at holding potential of -80 mV by whole cell patch clamp assay relative to control; type: toxicity, cell-based; conditions: HEK293 cells expressing hERG
[10] = Water solubility of compound in phosphate buffer at pH 2 by HPLC analysis; type: physicochemical
[11] = Metabolic stability in human liver microsome assessed as parent compound remaining preincubated for 10 mins followed by NADPH addition and measured after 60 mins by LC-MS/MS analysis; type: ADME; conditions: liver microsomes, time 70 min, read-out: Stability
Hepatitis B virus [12] = assay: Antiviral activity against HBV infected human HePAD38 cells assessed as reduction of HBV DNA level with compound replacement for every 3 days and measured on day 6 by qPCR analysis; type: functional, organism-based
[13] = Metabolic stability in human liver microsome assessed as half life preincubated for 10 mins followed by NADPH addition and measured after 60 mins by LC-MS/MS analysis; type: ADME; conditions: liver microsomes, time 70 min
Hepatitis B virus [14] = assay: Antiviral activity against HBV infected human HePAD38 cells assessed as reduction in intracellular core protein content upto 10 uM incubated for 6 days; type: functional, organism-based; conditions: time 6.0 day
[15] = Cytotoxicity against human HePAD38 cells assessed as reduction in cell viability by CCK-8 assay; type: toxicity, cell-based
Hepatitis B virus [16] = assay: Antiviral activity against HBV infected human HePAD38 cells assessed as reduction in intracellular core protein content at 0.016 uM incubated for 6 days by Western blot analysis; type: functional, organism-based; conditions: time 6.0 day
Hepatitis B virus [17] = assay: Antiviral activity against HBV infected human HePAD38 cells assessed as reduction in intracellular core protein content incubated for 6 days by Western blot analysis; type: functional, organism-based; conditions: dose 1.0 µM, time 6.0 day
Hepatitis B virus [18] = assay: Antiviral activity against HBV infected human HePAD38 cells assessed as reduction in intracellular core protein content at 0.08 uM incubated for 6 days by Western blot analysis; type: functional, organism-based; conditions: time 6.0 day
Hepatitis B virus [19] = assay: Antiviral activity against HBV infected in human HepG2.2.15 cells assessed as reduction in extracellular HBV DNA level incubated for 8 days by Southern blotting; type: functional, organism-based; conditions: HepG2.2.15, 192 h

T2 sequence (Q12809 whole entry): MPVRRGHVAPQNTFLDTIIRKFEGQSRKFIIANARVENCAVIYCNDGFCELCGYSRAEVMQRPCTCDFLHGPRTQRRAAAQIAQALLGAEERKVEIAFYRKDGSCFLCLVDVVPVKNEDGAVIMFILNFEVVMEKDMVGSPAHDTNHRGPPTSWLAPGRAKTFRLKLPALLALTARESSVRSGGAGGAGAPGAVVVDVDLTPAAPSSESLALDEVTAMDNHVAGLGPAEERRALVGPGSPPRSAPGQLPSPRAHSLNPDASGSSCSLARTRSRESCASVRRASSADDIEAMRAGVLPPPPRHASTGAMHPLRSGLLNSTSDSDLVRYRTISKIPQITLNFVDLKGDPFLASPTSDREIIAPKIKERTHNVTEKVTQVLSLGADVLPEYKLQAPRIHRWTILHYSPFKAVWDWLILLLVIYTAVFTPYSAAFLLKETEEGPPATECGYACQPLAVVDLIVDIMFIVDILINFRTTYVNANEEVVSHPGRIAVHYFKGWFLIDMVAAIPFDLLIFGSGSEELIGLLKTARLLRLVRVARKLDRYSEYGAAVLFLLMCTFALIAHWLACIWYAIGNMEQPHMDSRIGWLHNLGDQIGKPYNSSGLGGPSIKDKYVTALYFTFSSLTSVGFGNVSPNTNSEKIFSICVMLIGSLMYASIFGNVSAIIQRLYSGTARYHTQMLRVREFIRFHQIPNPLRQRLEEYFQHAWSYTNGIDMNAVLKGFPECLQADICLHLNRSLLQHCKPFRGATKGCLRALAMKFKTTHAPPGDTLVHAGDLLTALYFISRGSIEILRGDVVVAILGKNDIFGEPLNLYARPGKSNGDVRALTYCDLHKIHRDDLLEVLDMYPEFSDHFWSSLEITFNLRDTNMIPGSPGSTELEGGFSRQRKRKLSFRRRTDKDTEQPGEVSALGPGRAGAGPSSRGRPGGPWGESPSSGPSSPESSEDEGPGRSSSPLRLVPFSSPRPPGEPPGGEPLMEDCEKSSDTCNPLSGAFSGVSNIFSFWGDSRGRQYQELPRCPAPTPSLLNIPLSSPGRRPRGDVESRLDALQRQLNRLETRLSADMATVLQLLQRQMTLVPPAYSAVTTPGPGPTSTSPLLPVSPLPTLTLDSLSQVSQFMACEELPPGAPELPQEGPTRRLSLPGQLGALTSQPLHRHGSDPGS
Chain of CYP2C9 (P11712 whole entry): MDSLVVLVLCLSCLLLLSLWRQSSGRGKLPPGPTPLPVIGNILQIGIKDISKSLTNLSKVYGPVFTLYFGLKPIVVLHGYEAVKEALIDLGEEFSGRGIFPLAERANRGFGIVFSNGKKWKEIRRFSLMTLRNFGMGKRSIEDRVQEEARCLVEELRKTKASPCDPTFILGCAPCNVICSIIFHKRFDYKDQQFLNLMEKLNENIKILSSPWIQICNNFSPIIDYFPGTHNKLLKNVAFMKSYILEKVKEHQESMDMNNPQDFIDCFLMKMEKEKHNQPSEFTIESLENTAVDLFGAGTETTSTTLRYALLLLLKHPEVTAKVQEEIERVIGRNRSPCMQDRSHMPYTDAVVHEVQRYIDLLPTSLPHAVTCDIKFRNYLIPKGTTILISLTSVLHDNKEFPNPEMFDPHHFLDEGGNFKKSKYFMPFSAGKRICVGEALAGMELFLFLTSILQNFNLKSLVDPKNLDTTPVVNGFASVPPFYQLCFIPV
Chain of CYP2D6 (P10635 whole entry): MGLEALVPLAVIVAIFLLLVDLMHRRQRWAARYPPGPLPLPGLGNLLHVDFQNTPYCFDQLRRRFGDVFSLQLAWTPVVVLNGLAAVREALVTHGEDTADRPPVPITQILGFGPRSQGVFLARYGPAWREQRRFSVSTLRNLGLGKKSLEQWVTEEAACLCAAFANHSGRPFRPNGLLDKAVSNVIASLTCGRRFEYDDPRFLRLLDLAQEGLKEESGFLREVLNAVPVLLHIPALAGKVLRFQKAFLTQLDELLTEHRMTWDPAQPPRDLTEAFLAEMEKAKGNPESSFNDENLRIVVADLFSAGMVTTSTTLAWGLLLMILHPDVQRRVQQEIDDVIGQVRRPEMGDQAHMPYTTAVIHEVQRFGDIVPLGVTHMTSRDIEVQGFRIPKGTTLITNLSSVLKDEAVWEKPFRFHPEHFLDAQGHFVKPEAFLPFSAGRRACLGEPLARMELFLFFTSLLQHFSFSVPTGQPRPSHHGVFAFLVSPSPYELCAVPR
Chain of CYP2C19 (P33261 whole entry): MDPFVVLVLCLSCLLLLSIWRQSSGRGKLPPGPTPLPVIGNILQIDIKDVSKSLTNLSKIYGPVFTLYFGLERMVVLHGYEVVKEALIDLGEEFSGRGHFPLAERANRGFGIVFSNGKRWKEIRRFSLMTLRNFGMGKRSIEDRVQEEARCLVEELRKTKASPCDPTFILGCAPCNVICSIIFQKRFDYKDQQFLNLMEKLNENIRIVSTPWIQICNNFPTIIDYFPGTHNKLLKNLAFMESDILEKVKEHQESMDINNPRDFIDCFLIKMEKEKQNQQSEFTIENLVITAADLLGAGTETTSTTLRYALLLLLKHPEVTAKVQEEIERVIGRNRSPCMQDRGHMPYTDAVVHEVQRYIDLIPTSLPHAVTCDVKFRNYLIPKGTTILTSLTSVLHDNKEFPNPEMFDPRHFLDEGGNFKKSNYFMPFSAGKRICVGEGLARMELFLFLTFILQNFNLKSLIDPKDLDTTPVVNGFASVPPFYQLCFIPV

With CCOC(=O)C1=C(CN2CCN(C(/C=C/c3ccccc3)C(=O)O)CC2)NC(c2nccs2)=NC1c1ccc(F)cc1Br (stereo unspecified) the solubility [1] was 1.96 µg/mL (≈ 2.93 µM), the inhibition at 10 min, 10 µM (CYP2C9) was 26.2% and the solubility [2] was less than 0.58 µg/mL. For the same molecule, the inhibition at 10 min, 10 µM (CYP1A2) was 0%, the selectivity ratio [3] was 1060 and the inhibition at 10 min, 10 µM (CYP2C19) was 18.1%. The Activity (Hepatitis B virus [4]) was “Active”, the inhibition at 10 min, 10 µM (CYP2D6) was 12.4% and the CLint scaled [5] was 13.3 mL/min/kg. The inhibition at 1 µM (hERG (KCNH2) [6]) was 11.7%, the Activity (Hepatitis B virus [7]) was “Active” and the inhibition at 10 min, 10 µM (CYP3A) was 44.6%. For the same molecule, the microsomal CLint [8] was 14.8 µL/min/mg, the inhibition at 10 µM (hERG (KCNH2) [9]) was 93.4% and the solubility [10] was 361 µg/mL (≈ 541 µM). For the same molecule, the remaining at 1 h [11] was 64.6%, the EC50 (Hepatitis B virus [12]) was 21 nM and the half-life [13] was 1.56 h. The Activity (Hepatitis B virus [14]) was “Active” and the CC50 [15] was 22400 nM.
CCOC(=O)C1=C(CN2CCN(C(C(=O)O)c3cccc([N+](=O)[O-])c3)CC2)NC(c2nccs2)=NC1c1ccc(F)cc1Br (stereo unspecified) gave a solubility [1] of 6.85 µg/mL (≈ 9.96 µM), an inhibition at 10 min, 10 µM (CYP2C9) of 31.6% and a solubility [2] of 25.5 µg/mL (≈ 37.1 µM). The inhibition at 10 min, 10 µM (CYP1A2) was 8.9%, the selectivity ratio [3] was 1220 and the inhibition at 10 min, 10 µM (CYP2C19) was 15.3%. The Activity (Hepatitis B virus [16]) was “Active”, the inhibition at 10 min, 10 µM (CYP2D6) was 34% and the CLint scaled [5] was 11.5 mL/min/kg. The inhibition at 1 µM (hERG (KCNH2) [6]) was 15.7%, the Activity (Hepatitis B virus [7]) was “Active” and the inhibition at 10 min, 10 µM (CYP3A) was 17.1%. For the same molecule, the microsomal CLint [8] was 12.8 µL/min/mg, the inhibition at 10 µM (hERG (KCNH2) [9]) was 72.7% and the solubility [10] was 375 µg/mL (≈ 545 µM). For the same molecule, the remaining at 1 h [11] was 68%, the EC50 (Hepatitis B virus [12]) was 20 nM and the half-life [13] was 1.8 h. The Activity (Hepatitis B virus [14]) was “Active” and the CC50 [15] was 29200 nM.
For CCOC(=O)C1=C(CN2CCOCC2)NC(c2nccs2)=NC1c1ccc(F)cc1Br (stereo unspecified), the Activity (Hepatitis B virus [17]) was “Dose-Dependent Effect”, the solubility [1] was less than 1.19 µg/mL and the solubility [2] was less than 1.19 µg/mL. The Activity (Hepatitis B virus [18]) was “Active”, the EC50 (Hepatitis B virus [19]) was 12 nM and the CLint scaled [5] was 596 mL/min/kg. For the same molecule, the microsomal CLint [8] was 663 µL/min/mg, the solubility [10] was 215 µg/mL (≈ 423 µM) and the remaining at 1 h [11] was 0.1%. The EC50 (Hepatitis B virus [12]) was 7 nM and the half-life [13] was 0.035 h.

— ChEMBL document CHEMBL5329208 (RSC Med Chem, 2023)
